From patent publication US8188085B2, “Antifungal agents” (Merck Sharp & Dohme Corp., priority 2008, dated 2012)

biological target: glucan synthase (GS) prepared from Candida albicans MY1055 (Candida albicans, UniProt O13428); assay: Glucan synthase inhibition (polymerization assay, 96-well); format: biochemical; conditions: GS from C. albicans MY1055; 60 min incubation at 22° C.
Description: The in vitro evaluation of glucan synthase inhibitory activity of compounds was measured in a polymerization assay in 96-well format. Each well contained 100 μL of ^3H-UDPG at 0.5 mM (6000 to 8000 dpm/nmol), 50 mM HEPES pH 7.5 (Sigma), 10% w/v glycerol (Sigma), 1.5 mg/mL bovine serum albumin (Sigma A 9647. Lot 44H0190), 25 mM KF (Fisher), 1 mM EDTA (Gibco ULTRAPURE), 25 μM GTP-γ-S, enzyme sufficient to give 3 to 6 nmoles incorporation during the 60 min incubation at 22° C., and test compound added from wells in 3-fold serial dilutions in 100% DMSO (1 μL/well). The reaction was stopped by the addition of 100 μL of 20% trichloroacetic acid. Plates were chilled for a minimum of 10 min, and precipitated glucan collected by filtration on GF/C plates (Packard UNIFILTER®-96), washed with 5 cycles of water (about 1 mL/well each cycle) using a Packard FILTERMATE HARVESTER. 40 μL/well scintillation fluid (Packard ULTIMA GOLD TM-XR) was added and the sealed plates counted in a WALLAC BETA counter in top-counting mode at an efficiency of approximately 40%.
Stock solutions were stored at 10 mg/mL in DMSO at −20° C. For each new enzyme preparation, the initial titration performed started at 1 mg/mL, which was prepared by making a 10-fold dilution in DMSO (5 μL to 50 μL). 40 μL of this stock was placed in column 12 of a round-bottomed 96-well microtiter plate. 40 μL DMSO was added to columns 1 to 11 in the same row and ten 3-fold serial dilutions performed, by transferring 20 μL from column 12 to column 11 etc., with 4 mixings before each transfer. No test compound was transferred to from column 2 to column 1. Duplicate aliquots of 1 μL of all 12 dilutions were then transferred to the side walls of a 96-well Bioblock 1.1 mL plate (Fisher brand) to create two rows.
Graphs of the primary data were created in PRISM software (the average of two determinations) using PRISM's curve fitting program (sigmoidal dose response non-linear regression). The amount of compound required to inhibit glucan synthase activity by 50% in this assay (IC50−ng/mL) was calculated.
Routine analysis was performed with glucan synthase (GS) prepared from Candida albicans MY1055 by the following procedure: MY1055 was grown in 10 liters YPD medium (10 g yeast extract, 20 g tryptone, 20 g glucose per liter) with vigorous shaking at 30° C., to early stationary phase. Cells were harvested by centrifugation, the pellet was washed and frozen at −70° C. until breakage. Thawed pellets were shaken with an equal volume of breakage buffer (50 mM HEPES pH 7.4, 10% glycerol, 1 mM EDTA, 1 mM PMSF, 1 mM DTT) and 4 times their weight of 0.5 mm acid washed glass beads for 2 hours at 4° C. Extent of breakage was assessed visually at 40× magnification. After low speed centrifugation to remove cell debris, the supernatant was centrifuged at 100,000×g for 60 min. to separate membranes plus ribosomes from cytoplasmic components. Membranes were further washed two additional times with breakage buffer using the same centrifugation conditions and finally suspended in breakage buffer at 25 to 30 mg/mL protein (Biorad) for storage at −70° C. Extraction of GS activity from membranes was performed at a protein concentration of 5 mg/mL in extraction buffer (50 mM NaPO4 pH 7.5, 0.1 M KCl, 0.1M Na citrate, 20% glycerol, 5 μM GTP-γ-S, 1 mM DTT, 1 mM PMSF, 3 μg/mL pepstatin) plus 0.25% W1 by gentle mixing at 4° C. for 60 min, followed by centrifugation at 100,000×g for 60 min. After centrifugation, clear supernatant was removed from a pellet consisting of a hard layer usually with small amounts of gelatinous unextracted membranes above it.
Trapping was initiated immediately by 5-fold dilution in trapping buffer (50 mM HEPES pH 7.5, 10 mM KF, 1 mM EDTA, 2 mg/mL BSA) plus 2.5 mM UDPG and 10 μM GTP-γ-S. After incubation at 25° C. for 60 to 90 minutes, glucan was harvested by low speed centrifugation (3,000×g, 10 min). […]

Sequence of glucan synthase (GS) prepared from Candida albicans MY1055 (O13428 1-1897): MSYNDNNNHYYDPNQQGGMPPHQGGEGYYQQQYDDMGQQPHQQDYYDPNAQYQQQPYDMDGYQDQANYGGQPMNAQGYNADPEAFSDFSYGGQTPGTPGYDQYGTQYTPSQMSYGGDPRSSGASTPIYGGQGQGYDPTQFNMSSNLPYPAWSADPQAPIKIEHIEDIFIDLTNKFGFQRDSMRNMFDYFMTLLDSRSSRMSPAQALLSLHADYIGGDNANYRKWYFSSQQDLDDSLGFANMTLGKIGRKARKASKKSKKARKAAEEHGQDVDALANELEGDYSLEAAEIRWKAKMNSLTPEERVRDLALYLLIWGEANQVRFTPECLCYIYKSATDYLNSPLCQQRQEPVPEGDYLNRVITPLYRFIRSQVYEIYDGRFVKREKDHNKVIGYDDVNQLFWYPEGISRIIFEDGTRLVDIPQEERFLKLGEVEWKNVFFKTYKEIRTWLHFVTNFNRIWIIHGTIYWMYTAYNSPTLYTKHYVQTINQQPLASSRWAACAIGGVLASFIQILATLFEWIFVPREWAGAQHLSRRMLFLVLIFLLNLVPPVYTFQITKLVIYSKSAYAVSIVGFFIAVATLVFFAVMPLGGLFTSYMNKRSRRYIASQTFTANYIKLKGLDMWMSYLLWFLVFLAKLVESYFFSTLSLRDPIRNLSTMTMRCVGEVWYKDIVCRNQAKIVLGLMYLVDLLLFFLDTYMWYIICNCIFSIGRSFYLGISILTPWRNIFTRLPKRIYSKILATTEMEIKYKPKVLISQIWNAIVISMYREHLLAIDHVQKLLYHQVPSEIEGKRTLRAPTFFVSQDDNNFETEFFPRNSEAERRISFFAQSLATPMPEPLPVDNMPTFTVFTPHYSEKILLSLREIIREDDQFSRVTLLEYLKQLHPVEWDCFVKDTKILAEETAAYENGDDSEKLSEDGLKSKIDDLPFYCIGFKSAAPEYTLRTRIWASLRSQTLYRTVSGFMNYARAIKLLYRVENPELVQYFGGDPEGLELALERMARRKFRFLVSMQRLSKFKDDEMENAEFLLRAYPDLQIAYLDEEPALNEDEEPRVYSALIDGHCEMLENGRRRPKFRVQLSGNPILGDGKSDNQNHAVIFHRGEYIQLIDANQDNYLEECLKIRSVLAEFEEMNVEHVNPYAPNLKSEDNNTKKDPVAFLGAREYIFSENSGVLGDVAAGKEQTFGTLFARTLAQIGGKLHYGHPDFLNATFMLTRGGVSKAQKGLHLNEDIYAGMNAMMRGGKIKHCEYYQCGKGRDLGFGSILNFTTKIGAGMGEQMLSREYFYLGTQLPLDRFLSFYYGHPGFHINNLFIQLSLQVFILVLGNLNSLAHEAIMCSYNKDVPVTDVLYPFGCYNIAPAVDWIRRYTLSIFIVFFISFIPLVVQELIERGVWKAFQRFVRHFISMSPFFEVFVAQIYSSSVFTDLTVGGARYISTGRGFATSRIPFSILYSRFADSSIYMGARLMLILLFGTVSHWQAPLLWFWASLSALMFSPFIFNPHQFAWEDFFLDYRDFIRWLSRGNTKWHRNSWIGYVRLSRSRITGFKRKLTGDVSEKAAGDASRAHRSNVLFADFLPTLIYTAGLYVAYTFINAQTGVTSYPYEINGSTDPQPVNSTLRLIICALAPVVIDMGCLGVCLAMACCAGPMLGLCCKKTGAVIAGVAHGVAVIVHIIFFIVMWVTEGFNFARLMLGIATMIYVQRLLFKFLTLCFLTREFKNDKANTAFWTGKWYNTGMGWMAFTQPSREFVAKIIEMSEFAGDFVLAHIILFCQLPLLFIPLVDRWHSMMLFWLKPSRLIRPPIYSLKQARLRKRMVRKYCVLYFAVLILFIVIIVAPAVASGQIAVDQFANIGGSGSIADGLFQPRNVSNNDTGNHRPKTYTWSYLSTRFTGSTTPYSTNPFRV

CN[C@@](C)(CO[C@H]1[C@H](n2ncnc2I)C[C@@]23COC[C@]1(C)[C@@H]2CC[C@H]1C3=CC[C@@]2(C)[C@H](C(=O)O)[C@@](C)([C@H](C)C(C)C)CC[C@]12C)C(C)C (racemic) [Example 22, (1S,4aR,6aS,7R,8R,10aR,10bR,12aR,14R,1SR)-15-[[(2R)-2,3-dimethyl-2-(methylamino)butyl]oxy]-8-[(1R)-1,2-dimethylpropyl]-14-(5-iodo-1H-1,2,4-triazol-1-yl)-1,6,6a,7,8,9,10,10a,10b,11,12,12a-dodecahydro-1,6a,8,10a-tetramethyl-4H-1,4a-propano-2H-phenanthro[1,2-c]pyran-7-carboxylic acid] was tested, and the “Candida Albicans GS IC50” value was 5 ng/mL.

same assay, conditions: GS from C. albicans MY1055; 60 min incubation at 22° C.; read-out: Candida Albicans GS IC50 (converted)

Point of comparison: CC(C)[C@@H](C)[C@@]1(C)CC[C@]2(C)[C@H]3CC[C@@H]4[C@@]5(COC[C@@]4(C)[C@@H](OC[C@](C)(N)C(C)C)[C@H](n4ncnc4-c4ccnc(-c6cccnc6)c4)C5)C3=CC[C@@]2(C)[C@@H]1C(=O)O [Example 272, (1S,4aR,6aS,7R,8R,10aR,10bR,12aR,14R,15R)-15-[[(2R)-2-amino-2,3-dimethylbutyl]oxy]-14-(5-[2,3′-bipyridin]-4-yl-1H-1,2,4-triazol-1-yl)-8-[(1R)-1,2-dimethylpropyl]-1,6,6a,7,8,9,10,10a,10b,11,12,12a-dodecahydro-1,6a,8,10a-tetramethyl-4H-1,4a-propano-2H-phenanthro[1,2-c]pyran-7-carboxylic acid], IC50 10.1 nM. Against it:
- CC(C)[C@@H](C)[C@@]1(C)CC[C@]2(C)[C@H]3CC[C@@H]4[C@@]5(COC[C@@]4(C)[C@@H](OC[C@](C)(N)C(C)C)[C@H](n4ncnc4-c4ccc(N)cc4)C5)C3=CC[C@@]2(C)[C@@H]1C(=O)O [Example 200, (1S,4aR,6aS,7R,8R,10aR,10bR,12aR,14R,15R)-15-[[(2R)-2-amino-2,3-dimethylbutyl]oxy]-14-[5-(4-aminophenyl)-1H-1,2,4-triazol-1-yl]-8-[(1R)-1,2-dimethylpropyl]-1,6,6a,7,8,9,10,10a,10b,11,12,12a-dodecahydro-1,6a,8,10a-tetramethyl-4H-1,4a-propano-2H-phenanthro[1,2-c]pyran-7-carboxylic acid] — within 1.5-fold, 8.22 nM
- CC(C)[C@@H](C)[C@@]1(C)CC[C@]2(C)[C@H]3CC[C@@H]4[C@@]5(COC[C@@]4(C)[C@@H](OC[C@](C)(N)C(C)(C)C)[C@H](n4ncnc4Br)C5)C3=CC[C@@]2(C)[C@@H]1C(=O)O [Example 11, (1S,4aR,6aS,7R,8R,10aR,10bR,12aR,14R,15R)-15-[[(2R)-2-amino-2,3,3-trimethylbutyl]oxy]-14-(5-bromo-1H-1,2,4-triazol-1-yl)-8-[(1R)-1,2-dimethylpropyl]-1,6,6a,7,8,9,10,10a,10b,11,12,12a-dodecahydro-1,6a,8,10a-tetramethyl-4H-1,4a-propano-2H-phenanthro[1,2-c]pyran-7-carboxylic acid] — 2.5-fold lower, 4.1 nM
- CC(C)[C@@H](C)[C@@]1(C)CC[C@]2(C)[C@H]3CC[C@@H]4[C@@]5(COC[C@@]4(C)[C@@H](OC[C@](C)(N)C(C)(C)C)[C@H](n4ncnc4-c4ccc(CN(C)C)cc4)C5)C3=CC[C@@]2(C)[C@@H]1C(=O)O [Example 239, (1S,4aR,6aS,7R,8R,10aR,10bR,12aR,14R,15R)-15-[[(2R)-2-amino-2,3,3-trimethylbutyl]oxy]-14-[5-[4-[(dimethylamino)methyl]phenyl]-1H-1,2,4-triazol-1-yl]-8-[(1R)-1,2-dimethylpropyl]-1,6,6a,7,8,9,10,10a,10b,11,12,12a-dodecahydro-1,6a,8,10a-tetramethyl-4H-1,4a-propano-2H-phenanthro[1,2-c]pyran-7-carboxylic acid] — 80-fold lower, 0.127 nM
- CC(C)NC(=O)c1ncn([C@@H]2C[C@@]34COC[C@](C)([C@@H]3CC[C@H]3C4=CC[C@@]4(C)[C@H](C(=O)O)[C@@](C)([C@H](C)C(C)C)CC[C@]34C)[C@H]2OC[C@](C)(N)C(C)C)n1 (single isomer, unassigned) [Example 37B] — 6-fold higher, 60.8 nM
- CNC1(CO[C@H]2[C@H](n3ncnc3Cl)C[C@@]34COC[C@]2(C)[C@@H]3CC[C@H]2C4=CC[C@@]3(C)[C@H](C(=O)O)[C@@](C)([C@H](C)C(C)C)CC[C@]23C)CCOCC1 [Example 14, (1S,4aR,6aS,7R,8R,10aR,10bR,12aR,14R,15R)-14-(5-chloro-1H-1,2,4-triazol-1-yl)-8-[(1R)-1,2-dimethylpropyl]-15-[[tetrahydro-4-(methylamino)-2H-pyran-4-yl]methoxy]-1,6,6a,7,8,9,10,10a,10b,11,12,12a-dodecahydro-1,6a,8,10a-tetramethyl-4H-1,4a-propano-2H-phenanthro[1,2-c]pyran-7-carboxylic acid] — within 1.5-fold, 7.13 nM
- CC(C)[C@@H](C)[C@@]1(C)CC[C@]2(C)[C@H]3CC[C@@H]4[C@@]5(COC[C@@]4(C)[C@@H](OC[C@](C)(C(C)C)N(C)C)[C@H](n4cnc(N)n4)C5)C3=CC[C@@]2(C)[C@@H]1C(=O)O [Example 27, (1S,4aR,6aS,7R,8R,10aR,10bR,12aR,14R,15R)-14-(3-amino-1H-1,2,4-triazol-1-yl)-15-[[(2S)-2-(dimethylamino)-2,3-dimethylbutyl]oxy]-8-[(1R)-1,2-dimethylpropyl]-1,6,6a,7,8,9,10,10a,10b,11,12,12a-dodecahydro-1,6a,8,10a-tetramethyl-4H-1,4a-propano-2H-phenanthro[1,2-c]pyran-7-carboxylic acid] — 1.6-fold higher, 16.1 nM
- CC(C)[C@@H](C)[C@@]1(C)CC[C@]2(C)[C@H]3CC[C@@H]4[C@@]5(COC[C@@]4(C)[C@@H](OC[C@](C)(N)C(C)(C)C)[C@H](n4ncnc4-c4ccc(CN)cc4)C5)C3=CC[C@@]2(C)[C@@H]1C(=O)O [Example 178, (1S,4aR,6aS,7R,8R,10aR,10bR,12aR,14R,15R)-14-[5-[4-(aminomethyl)phenyl]-1H-1,2,4-triazol-1-yl]-15-[[(2R)-2-amino-2,3,3-trimethylbutyl]oxy]-8-[(1R)-1,2-dimethylpropyl]-1,6,6a,7,8,9,10,10a,10b,11,12,12a-dodecahydro-1,6a,8,10a-tetramethyl-4H-1,4a-propano-2H-phenanthro[1,2-c]pyran-7-carboxylic acid] — 9.5-fold lower, 1.06 nM
- CC(C)[C@@H](C)[C@@]1(C)CC[C@]2(C)[C@H]3CC[C@@H]4[C@@]5(COC[C@@]4(C)[C@@H](OC[C@](C)(N)C(C)C)[C@H](n4ncnc4-c4ccc6ccccc6c4)C5)C3=CC[C@@]2(C)[C@@H]1C(=O)O [Example 158, (1S,4aR,6aS,7R,8R,10aR,10bR,12aR,14R,15R)-15-[[(2R)-2-amino-2,3-dimethylbutyl]oxy]-8-[(1R)-1,2-dimethylpropyl]-14-[5-(2-naphthalenyl)-1H-1,2,4-triazol-1-yl]-1,6,6a,7,8,9,10,10a,10b,11,12,12a-dodecahydro-1,6a,8,10a-tetramethyl-4H-1,4a-propano-2H-phenanthro[1,2-c]pyran-7-carboxylic acid] — 2.1-fold higher, 20.9 nM
- CNC1(CO[C@H]2[C@H](n3cncn3)C[C@@]34COC[C@]2(C)[C@@H]3CC[C@H]2C4=CC[C@@]3(C)[C@H](C(=O)O)[C@@](C)([C@H](C)C(C)C)CC[C@]23C)CCCCC1 [Example 16, (1S,4aR,6aS,7R,8R,10aR,10bR,12aR,14R,15R)-8-[(1R)-1,2-dimethylpropyl]-15-[[1-(methylamino)cyclohexyl]methoxy]-14-(1H-1,2,4-triazol-1-yl)-1,6,6a,7,8,9,10,10a,10b,11,12,12a-dodecahydro-1,6a,8,10a-tetramethyl-4H-1,4a-propano-2H-phenanthro[1,2-c]pyran-7-carboxylic acid] — 3.3-fold higher, 33.1 nM
